Test results as given in article PMC11449324, “Functional comparison of human and murine equilibrative nucleobase transporter 1” (PLOS ONE, 2024).
Where two headings read alike, the source gives them in different places.

Experiments:
[1] = tested on: HEK293-EV cells (ENBT1-deficient); test: Radiolabelled substrate uptake in empty vector HEK293-EV cells; type: cell-based, human; details: 2 seconds
Procedure: This is the minimum incubation time achievable with this oil-stop technique, and it was found in previous studies that these short incubation times were necessary to assess the kinetics of this transporter. The aqueous layer was removed via vacuum-powered aspirator, and the tube was washed with 1 mL of NMG buffer prior to removal of the oil layer. […] In transfected-HEK293 cell lines, total uptake was defined as uptake of radiolabeled substrate in cells overexpressing recombinant hENBT1 or mENBT1. […] This non-mediated component would include passive diffusion into the cells and radiolabelled substrate remaining extracellularly in the digested cell pellet after processing the samples. […] ENBT1-mediated uptake was calculated as total uptake minus the non-mediated uptake. Cell water volume (μL) was estimated by incubating cells with ^3H2O for 3 minutes, centrifuging the cells through the oil layer at ~10,000 g, assessing 100 μL of the supernatant for radioactive content, and then processing as described above. Total cellular water volume was determined from the ratio of the decays per minute of the cell pellet, to the decays per minute of the supernatant, allowing for inter-experimental normalization via calculation of picomoles of substrate accumulated per microliter of cell-associated water.

hENBT1 = molecular target: T1, hENBT1 (Homo sapiens, UniProt Q8NBI5); test: Inhibition of ENBT1-mediated substrate uptake in HEK293-hSLC43A3 cells; type: cell-based
T1 construct: Oligonucleotides corresponding to the coding region of SLC43A3 (NM_001278201) or slc43a3 (NM_021398); expressed in transfected cells; HEK293-hSLC43A3
T1 sequence (Q8NBI5 1-491): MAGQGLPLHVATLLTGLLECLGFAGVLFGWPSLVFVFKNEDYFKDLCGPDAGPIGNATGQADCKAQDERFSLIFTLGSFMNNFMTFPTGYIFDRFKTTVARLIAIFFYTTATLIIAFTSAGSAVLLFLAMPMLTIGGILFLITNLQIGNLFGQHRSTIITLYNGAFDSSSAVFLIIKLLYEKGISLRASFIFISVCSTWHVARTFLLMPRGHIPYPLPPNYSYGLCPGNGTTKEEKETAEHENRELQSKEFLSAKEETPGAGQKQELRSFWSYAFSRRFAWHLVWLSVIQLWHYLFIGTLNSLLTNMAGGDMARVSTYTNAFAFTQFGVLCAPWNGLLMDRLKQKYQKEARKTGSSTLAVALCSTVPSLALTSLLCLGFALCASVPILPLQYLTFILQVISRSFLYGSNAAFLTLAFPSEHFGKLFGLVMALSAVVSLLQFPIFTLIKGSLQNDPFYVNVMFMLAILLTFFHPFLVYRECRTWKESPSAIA
Procedure: Harvested cells were suspended in nominally sodium-free N-methyl-D-glucamine (NMG) buffer (140 mM NMG, 5 mM KCl, 4.2 mM KHCO3, 0.36 mM K2HPO4, 0.44 mM KH2PO4, 0.5 mM MgCl2, 1.3 mM CaCl2, 10 mM HEPES, pH 7.4), to minimize potential contribution of sodium-dependent concentrative nucleoside transporter-mediated uptake. Additionally, cells were incubated for 15 minutes at room temperature with 10 μM dipyridamole (DY), an equilibrative nucleoside transporter (ENT) inhibitor, to block equilibrative nucleoside transporter–mediated uptake. The substrate uptake assay was initiated by adding 250 μL cell suspension to 250 μL [^3H] labeled substrate, layered over 21:4 silicone:mineral oil (200 μL) in 1.5 mL microcentrifuge tubes (conducted at room temperature). The uptake reaction was terminated after 2 seconds by centrifugation of the cells through the oil layer at ~10,000 g. This is the minimum incubation time achievable with this oil-stop technique, and it was found in previous studies that these short incubation times were necessary to assess the kinetics of this transporter. The aqueous layer was removed via vacuum-powered aspirator, and the tube was washed with 1 mL of NMG buffer prior to removal of the oil layer. The resulting cell pellet was digested in 250 μL 1 M NaOH overnight (~16 hours), with 220 μL aliquots of digested cells assessed for radioactive content using standard liquid scintillation counting techniques in a Beckman Coulter LS6500 scintillation system (Brea, CA).
To assess the ability of compounds to inhibit substrate uptake, cells were incubated with the inhibitor for 15 minutes prior to initiating the uptake assay, or exposed to the cells simultaneously with the radiolabelled substrate. […] After subtraction of the non-mediated uptake component, the degree of inhibition was calculated as the ratio of cellular accumulation in the presence of test compound to that measured in its absence (X 100).
Each assay was repeated 5–6 times using independent cell isolations and reagent preparations. In addition, within each assay, there were two or three technical replicates (using the same reagents and cells) that were averaged to obtain a single data point. Nonlinear curves were fitted to data (presented as mean ± SD from the 5–6 independent experiments), and statistical analyses were done using GraphPad Prism 10 software. In all cases, if the P-value determined from a statistical test was less than 0.05, the null hypothesis was rejected and the alternative hypothesis was favoured. Significant differences between groups were assessed using either Student’s t-test or ordinary one- or two-way analysis of variance (ANOVA) followed by a post hoc Šidák multiple comparison test, as appropriate. For influx and cell viability analyses, significant differences in Km and EC50 value, respectively, between the hENBT1 and mENBT1 data sets, were determined by the extra sum-of-squares F test. For inhibition analyses, the Ki values were determined from the IC50 values using the specified substrate concentration [S], based on the Cheng-Prusoff equation Ki = IC50/(1 + [S]/Km) and experimentally obtained Km values.

Nc1ncnc2[nH]cnc12 [adenine, Adenine]
uptake of radiolabelled substrate [1]: minimal uptake
Ki (hENBT1): 25 ± 9 µM
inhibition of ENBT1-mediated [14C]6-MP uptake (hENBT1; at 1 mM adenine, HEK293-hSLC43A3): near complete inhibition

Sc1ncnc2nc[nH]c12 [6-MP, 6-Mercaptopurine]
uptake of radiolabelled substrate [1]: minimal uptake
Ki (hENBT1; HEK293-hSLC43A3, 30 μM [3H]adenine, 2 seconds, Cheng-Prusoff, read-out: Ki for inhibition of ENBT1-mediated [3H]adenine uptake): 5900 ± 700 µM
inhibition of ENBT1-mediated [3H]adenine uptake (hENBT1; at highest concentration of 6-MP tested (1 mM), HEK293-hSLC43A3): complete inhibition was not obtained
Ki relative to its Km for the transporter (hENBT1; hENBT1): 30 fold
